# Measured values reported in US8389538B2, “Rexinoid compound having alkoxy group” (National University Corporation Okayama University, priority 2007, dated 2013).
# Tested on: Human leukemia cell strain HL-60
# Assay: HL-60 differentiation induction (NBT reduction method)
# Format: cell-based
# Details: Am80 present at 3.3×10^−10 M; half of maximum differentiation inducing rate; read-out: Retinoid synergistic activity SEC50
# Protocol: Human leukemia cell strain HL-60 differentiates into granulocytes (neutrophils) to come to have an ability to express active oxygen. […] A method for measuring differentiation inducibility of cells into granulocytes by using this principle is referred to as NBT reduction method. So, the differentiation inducibility of the synthesized compound was measured by NBT reduction method. […] Each compound was dissolved in dimethylsulfoxide (DMSO) into 20 mM to prepare a stock solution. NBT was prepared into 0.2 w/v % by using PBS (−) 2 hours before use and incubated at 37° C. TPA was dissolved in ethanol (EtOH) into 2 mg/mL to prepare a stock solution. This TPA solution was prepared into 20 μg/mL by using PBS (−) at the time of use. […] The action of RXR agonist is enhanced by the combined use of that and RAR agonist. […] After four days cultivation, cells were collected by centrifugation (4° C., 1500 rpm, 5 minutes). After these cells were seeded onto 1 mL of a fresh growth medium, then 1 mL of 0.2 w/v % NBT solution and 20 μl of 20 μg/ml of TPA solution were added, and incubation was carried out in the incubator containing 5% CO2 at 37° C. for 30 minutes. Then, stained cell number and total cell number were counted on a cell counter. Meanwhile, the measurement was conducted three times by counting 200 cells or more at a time and a differentiation inducing rate was calculated from a mean value obtained by averaging them. […] Meanwhile, “inert” means that differentiation inducibility can not be observed even at 10 μM. Likewise, b) BA (bioactivity) (%) refers to the maximum differentiation inducing rate relative to the total cell number in this test.
row,SMILES,EC50
1,CCN(c1ccc(C(C)C)c(OC(C)C)c1)c1ccc(C(=O)O)cn1 [Compound 1a],10 nM
2,CCCOc1ccc(Nc2ccc(C(=O)O)cn2)cc1C(C)C [Compound 5c],> 10000 nM
3,CCCOc1cc(N(c2ccc(C(=O)O)cn2)S(C)(=O)=O)ccc1C(C)C [Compound 2b],800 nM
4,CC(C)Oc1cc(Nc2ccc(C(=O)O)cn2)ccc1C(C)C [Compound 1c],4500 nM

# Same assay, conditions: Am80 present at 3.3×10^−10 M; maximum differentiation inducing rate relative to total cell number
row,SMILES,Retinoid synergistic activity BA(%)
1,CCN(c1ccc(C(C)C)c(OC(C)C)c1)c1ccc(C(=O)O)cn1 [Compound 1a],80%
2,CCCOc1ccc(Nc2ccc(C(=O)O)cn2)cc1C(C)C [Compound 5c],15%
3,CCCOc1cc(N(c2ccc(C(=O)O)cn2)S(C)(=O)=O)ccc1C(C)C [Compound 2b],63%
4,CC(C)Oc1cc(Nc2ccc(C(=O)O)cn2)ccc1C(C)C [Compound 1c],63%

# Same assay, conditions: Homo sapiens, HL-60, 96 h; test compound alone; concentration giving half of maximum differentiation inducing rate; four days culture; read-out: Retinoid activity EC50
row,SMILES,EC50
1,CCN(c1ccc(C(C)C)c(OC(C)C)c1)c1ccc(C(=O)O)cn1 [Compound 1a],> 10000 nM

# Same assay, conditions: test compound alone; concentration giving half of maximum differentiation inducing rate; four days culture; read-out: Retinoid activity EC50
row,SMILES,EC50
1,CCCOc1ccc(Nc2ccc(C(=O)O)cn2)cc1C(C)C [Compound 5c],> 10000 nM
2,CCCOc1cc(N(c2ccc(C(=O)O)cn2)S(C)(=O)=O)ccc1C(C)C [Compound 2b],> 10000 nM
3,CC(C)Oc1cc(Nc2ccc(C(=O)O)cn2)ccc1C(C)C [Compound 1c],> 10000 nM

# Same assay, conditions: test compound alone; maximum differentiation inducing rate relative to total cell number
row,SMILES,Retinoid activity BA(%)
1,CCN(c1ccc(C(C)C)c(OC(C)C)c1)c1ccc(C(=O)O)cn1 [Compound 1a],4%
2,CCCOc1ccc(Nc2ccc(C(=O)O)cn2)cc1C(C)C [Compound 5c],3%
3,CCCOc1cc(N(c2ccc(C(=O)O)cn2)S(C)(=O)=O)ccc1C(C)C [Compound 2b],50%
4,CC(C)Oc1cc(Nc2ccc(C(=O)O)cn2)ccc1C(C)C [Compound 1c],24%

# Target: T1, RXRα (Homo sapiens, UniProt P19793)
# T1 construct: expressed in transfected cells; host or cells: COS-1 cells
# T1 sequence (P19793 1-462): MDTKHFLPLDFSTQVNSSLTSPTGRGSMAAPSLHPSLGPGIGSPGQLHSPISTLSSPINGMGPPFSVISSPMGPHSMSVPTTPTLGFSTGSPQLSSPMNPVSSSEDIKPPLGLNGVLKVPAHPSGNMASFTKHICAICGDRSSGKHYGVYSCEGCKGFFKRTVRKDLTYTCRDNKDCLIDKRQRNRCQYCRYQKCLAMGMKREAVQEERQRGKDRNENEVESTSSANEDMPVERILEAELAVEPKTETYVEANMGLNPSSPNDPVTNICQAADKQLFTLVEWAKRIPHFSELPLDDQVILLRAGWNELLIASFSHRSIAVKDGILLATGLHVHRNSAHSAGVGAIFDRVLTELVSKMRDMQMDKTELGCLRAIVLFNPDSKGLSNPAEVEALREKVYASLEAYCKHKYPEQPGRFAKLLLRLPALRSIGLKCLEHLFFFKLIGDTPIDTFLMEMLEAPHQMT
# Assay: RXR reporter gene assay (luciferase) in COS-1 cells, RXRα
# Format: cell-based
# Details: COS-1
# Protocol: (§1) Most of nuclear receptors are transcription factors associated with regulating transcription, so that reporter gene assay is conducted as a means of measuring its transcription activity. An expression plasmid for RXR receptor protein and a reporter plasmid were introduced into cells such as COS-1 cells and HeLa cells to cause overexpression. And, when RXR agonist is bound to the receptor, transcription is induced in a ligand dependent manner, and a protein which is referred to as fusion protein downstream is produced. The binding of this fusion protein to the binding site on the reporter plasmid initiates the transcription to produce luciferase downstream. RXR agonistic activity was measured by measuring this luciferase activity.
# (§2) Dulbecco's Modified Eagle MEM medium (DMEM) was used as growth medium.
# (§3) Passage was conducted by removing culture supernatant from the cell culture grown in a 100 mm culture dish, collecting cells by trypsinization, centrifuging at 1000 rpm at 4° C. for 3 minutes, then dispersing cells by adding growth medium and growing them in a 100 mm culture dish (15 mL of growth medium) at 37° C. in the presence of 5% CO2.
# (§4) Transformation was conducted using Effectene™ Transfection Reagent (QIAGEN). Further, Luciferase Assay System was used for evaluating luciferase activity. Am80 was used for the positive control of RAR, and 9-cis retinoic acid was used for the positive control of RXR. They were dissolved in DMSO for use as a stock solution and measured on every plate to be assayed.
# (§5) • On day 1: COS-1 cells were seeded along with 15 mL of growth medium in a 60 mm culture dish at 50×10^4 cells and were cultured over night. • On day 2: Transformation was conducted by lipofection using Effectene™ Transfection Reagent. • On day 3: 16 to 18 hours later, the culture supernatant was removed, cells were collected by trypsinization, centrifugation was conducted at 1000 rpm at 4° C. for 3 minutes, then cells were dispersed by adding growth medium, and then the cells were seeded on a 96-well white plate at 2.0×10^4 cells/well. Then, each compound was added at DMSO concentration of 1% or below. • On day 4: 24 hours later, 25 μL of the supernatant was used for SEAP measurement, and the rest cell-containing solution was used for measuring luciferase activity.
# (§6) In Table 5, a) EC50 indicated a concentration giving the half of the maximum transcriptional activation potential.
row,SMILES,Emax
1,CCN(c1ccc(C(C)C)c(OC(C)C)c1)c1ccc(C(=O)O)cn1 [Compound 1a],130%

# Same assay, conditions: COS-1 cells; half of maximum transcriptional activation potential
row,SMILES,EC50
1,CCN(c1ccc(C(C)C)c(OCC(C)C)c1)c1ncc(C(=O)O)cn1 [Compound 7a],2.9 nM
2,CCN(c1ccc(C(C)C)c(OC(C)C)c1)c1ccc(C(=O)O)cn1 [Compound 1a],27 nM

# Same assay, conditions: COS-1 cells; relative to PA024 (1 μM) = 100%
row,SMILES,RXRα Emax (%)
1,CCN(c1ccc(C(C)C)c(OCC(C)C)c1)c1ncc(C(=O)O)cn1 [Compound 7a],110%

# Same assay, conditions: reporter gene assay; RXRα/β versus RXRγ
row,SMILES,selectivity for RXRα/β over RXRγ
1,CCN(c1ccc(C(C)C)c(OC(C)C)c1)c1ccc(C(=O)O)cn1 [Compound 1a],≥ 10 times

# Target: T2, RXRβ (Homo sapiens, UniProt P28702)
# T2 construct: expressed in transfected cells; host or cells: COS-1 cells
# T2 sequence (P28702 1-533): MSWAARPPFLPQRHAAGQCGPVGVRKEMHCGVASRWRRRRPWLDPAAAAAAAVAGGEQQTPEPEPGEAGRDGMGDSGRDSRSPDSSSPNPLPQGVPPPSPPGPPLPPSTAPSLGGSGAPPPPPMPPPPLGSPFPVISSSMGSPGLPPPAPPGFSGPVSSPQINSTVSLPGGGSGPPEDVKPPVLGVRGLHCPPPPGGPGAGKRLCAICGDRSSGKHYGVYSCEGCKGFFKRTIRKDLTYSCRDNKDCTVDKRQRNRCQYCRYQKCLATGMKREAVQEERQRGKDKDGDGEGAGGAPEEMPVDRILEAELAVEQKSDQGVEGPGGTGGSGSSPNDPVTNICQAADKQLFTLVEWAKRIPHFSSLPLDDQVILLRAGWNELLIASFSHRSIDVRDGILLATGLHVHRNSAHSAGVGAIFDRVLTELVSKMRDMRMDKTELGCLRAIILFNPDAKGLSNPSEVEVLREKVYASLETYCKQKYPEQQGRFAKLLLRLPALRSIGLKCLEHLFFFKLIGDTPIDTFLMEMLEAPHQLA
# Assay: RXR reporter gene assay (luciferase) in COS-1 cells, RXRβ
# Format: cell-based
# Details: COS-1
# Protocol: as §1, §2, §3, §4, §5, §6
row,SMILES,Emax
1,CCN(c1ccc(C(C)C)c(OC(C)C)c1)c1ccc(C(=O)O)cn1 [Compound 1a],110%

# Same assay, conditions: COS-1 cells; half of maximum transcriptional activation potential
row,SMILES,EC50
1,CCN(c1ccc(C(C)C)c(OCC(C)C)c1)c1ncc(C(=O)O)cn1 [Compound 7a],7.3 nM
2,CCN(c1ccc(C(C)C)c(OC(C)C)c1)c1ccc(C(=O)O)cn1 [Compound 1a],35 nM

# Same assay, conditions: COS-1 cells; relative to PA024 (1 μM) = 100%
row,SMILES,RXRβ Emax (%)
1,CCN(c1ccc(C(C)C)c(OCC(C)C)c1)c1ncc(C(=O)O)cn1 [Compound 7a],140%

# Target: T3, RXRγ (Homo sapiens, UniProt P48443)
# T3 construct: expressed in transfected cells; host or cells: COS-1 cells
# T3 sequence (P48443 1-463): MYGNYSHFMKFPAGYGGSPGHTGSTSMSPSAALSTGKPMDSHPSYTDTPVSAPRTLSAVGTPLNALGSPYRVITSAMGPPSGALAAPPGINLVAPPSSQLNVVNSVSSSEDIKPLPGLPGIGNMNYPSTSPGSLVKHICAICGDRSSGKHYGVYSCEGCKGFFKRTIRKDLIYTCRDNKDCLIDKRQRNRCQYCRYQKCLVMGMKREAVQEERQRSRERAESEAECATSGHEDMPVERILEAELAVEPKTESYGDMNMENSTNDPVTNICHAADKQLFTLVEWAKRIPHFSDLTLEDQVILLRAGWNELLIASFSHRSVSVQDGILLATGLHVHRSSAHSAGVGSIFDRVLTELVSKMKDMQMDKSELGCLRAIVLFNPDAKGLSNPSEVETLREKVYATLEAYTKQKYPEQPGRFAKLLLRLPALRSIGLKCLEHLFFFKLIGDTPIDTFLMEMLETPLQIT
# Assay: RXR reporter gene assay (luciferase) in COS-1 cells, RXRγ
# Format: cell-based
# Details: COS-1
# Protocol: as §1, §2, §3, §4, §5, §6
row,SMILES,Emax
1,CCN(c1ccc(C(C)C)c(OC(C)C)c1)c1ccc(C(=O)O)cn1 [Compound 1a],> 88%

# Same assay, conditions: COS-1 cells; half of maximum transcriptional activation potential
row,SMILES,EC50
1,CCN(c1ccc(C(C)C)c(OCC(C)C)c1)c1ncc(C(=O)O)cn1 [Compound 7a],4.9 nM
2,CCN(c1ccc(C(C)C)c(OC(C)C)c1)c1ccc(C(=O)O)cn1 [Compound 1a],> 380 nM

# Same assay, conditions: COS-1 cells; relative to PA024 (1 μM) = 100%
row,SMILES,RXRγ Emax (%)
1,CCN(c1ccc(C(C)C)c(OCC(C)C)c1)c1ncc(C(=O)O)cn1 [Compound 7a],105%

# Tested on: Histone Deacetylase (HDAC)
# Assay: HDAC Activity/Inhibitor Screening Assay Kit (Cayman)
# Format: biochemical
# Details: at 100 μM
# Protocol: Activity Evaluation Method 3: Histone Deacetylase (HDAC) Inhibitory Activity
# HDAC inhibitory activity was evaluated for compounds represented by formulae XVII and XVIII, through the use of HDAC Activity/Inhibitor Screening Assay Kit supplied by Cayman and according to that protocol.
row,SMILES,HDAC activity inhibition rate
1,CCN(c1ccc(C(C)C)c(OC(C)C)c1)c1ccc(/C=C/C(=O)O)cn1 [XVII],78%

# Tested on: edema induced by carrageenin
# Assay: Carrageenin edema test
# Format: in vivo
# Details: rats, 10 mg/kg oral, 3 hours before carrageenin; 3 hours after the administration of carrageenin; hind foot pads
# Protocol: Carrageenin edema test was used for anti-inflammatory test by using rats. 10 mg/kg compound 1a (NEt-3IP) was orally administered to five rats in a group, and then 3 hours later, 1% carrageenin solution, which was an edema-inducing substance, was subcutaneously administered to the hind foot pads (0.1 mL/rat). Then, 1, 2, 3 and 4 hours after that, the thickness of edema of the hind foot pads was measured. […] The rate of inhibiting edema was 27% 3 hours after the administration of carrageenin.
row,SMILES,rate of inhibiting edema
1,CCN(c1ccc(C(C)C)c(OC(C)C)c1)c1ccc(C(=O)O)cn1 [Compound 1a],27%
